From patent US6235891A, “Glucocorticoid receptor agonist and decreased PP5” (South Alabama Medical Science Foundation, priority 1999, dated 2001) come the findings set out here.

The test system of test [1] is serum/glucocorticoid inducible protein kinase (sgk) mRNA. The test can be described thus: Northern analysis of sgk mRNA. The test is classed as cell-based, human. Conditions: 24 hours. The method, then: The cells were harvested, and total RNA was extracted with TRIzol® Reagent according to the methods of the manufacturer. Total RNA (20 μg) was fractionated on 1% agarose gels containing formaldehyde and transferred to DURLON-UV nylon membranes (Stratagene). Following UV cross-linking, the filters were hybridized with a [α^32 P]probe for human PP5. The human PP5 cDNA probe was generated from the full length coding region of PP5 and [α^32 P]-dATP was labeled with DECAprime® DNA Labeling Kit according to the manufacturer's protocol. […] Quantification of hybridization signals was achieved by analysis of the scanned autoradiograms using the NIH Image program (ImagePC).
The antiproliferative effect of dexamethasone correlates with the presence of wild type p53 and the expression of p21^Waf1/Cip1 mRNA. Referring to FIGS. 1A-1C, the effect of dexamethasone on cell proliferation in p53-defective T-24 human bladder carcinoma, p53-null TR9 human fibroblasts (Webster et al. 1993; Maiyar et al. 1996), and p53 wild-type A549 human lung carcinoma cells was determined by treating cells in log-phase growth with a single dose of 100 nM dexamethasone and counting the number of cells in treated (.cndot.) and untreated (.box-solid.) cultures for six consecutive days following treatment. […] After 24 hours total mRNA was prepared and analyzed for p21 and sgk mRNA levels by Northern analysis. […]

The next test has as its system p53 phosphorylation. The test can be described thus: Immunoprecipitation of [32P]-labelled p53 from A549 cells. The note with it: six hours, 100 nM dexamethasone or 300 nM ISIS 15534. It is filed as cell-based, human. How it is done:
Immunoprecipitation of p53 protein. A549 cells were cultured in 60 mm dishes until the cell cultures were about 80% confluent, washed with PBS and placed for 1 hour in phosphate-free DMEM containing 5% fetal bovine serum. The cell cultures were then treated with 100 nM dexamethasone or 300 nM ISIS 15521 or ISIS 15534 as described previously (Zuo et al. 1998), three dishes per group, and [^32 P] phosphate (0.2 mCi/ml) was added to the media. Six hours after treatment, the cells were collected, washed with ice-cold PBS and stored at -80° C. prior to analysis. […]
Referring to FIGS. 2A-2C, Northern blot analysis of 549 cells following treatment with dexamethasone and/or ISIS 15534 is shown. […] After 24 hours, 20 μg of total RNA was prepared and analyzed for serine/threonine protein phosphatase 5 (PP5), p21^Waf1/Cip1 (p21), and serum/glucocorticoid inducible kinase (sgk) mRNA levels. […] Six hours later, the protein extracts were prepared, and changes in p53 phosphorylation were determined by immunoprecipitation, SDS-PAGE analysis, and visualized by autoradiography (Control, p53 from control cells; ISIS 15534, p53 from cells treated with 500 nM ISIS 15534; Dex, p53 from cells treated with 100 nM dexamethasone).Referring to FIG. 2E, a Western analysis of an Immobilon membrane produced by the transfer of protein from the SDS-PAGE gel and detected with an anti-p53 mouse monoclonal antibody is shown.

`C[C@@H]1C[C@H]2[C@@H]3CCC4=CC(=O)C=C[C@]4(C)[C@@]3(F)[C@@H](O)C[C@]2(C)[C@@]1(O)C(=O)CO` [dexamethasone, reference compound]: the Expression of sgk entry is given as “dose-dependent increase” in test [1] (A549 cells, dexamethasone 0-100 nM) and “induced the expression” in test [1] (all three cell lines (A549, T-24, TR9), 100 nM). For the same compound, the “Phosphorylation of p53” value in the test with p53 phosphorylation is “hyperphosphorylation of p53”.
